For the assay, the target named is T1, recombinant human PKM2 (Homo sapiens, UniProt P14618).
T1 construct: His (N); purchased R&D Systems
In words: Human PKM2 activation assay (Kinase-Glo Plus luminescent detection of generated ATP). The settings on record: for hPKM2 Emax / Emax: percentage activation normalised to DMSO vehicle (LOW) and 5 μM TEPP-46 (HIGH); for EC50: recombinant human PKM2 activation, 4-parameter logistic fit, read-out: hPKM2 EC50; for Emax: read-out: hPKM2 Emax. The assay is classed as biochemical. The procedure:
Compound activation of recombinant human PKM2 pyruvate kinase activity was determined by biochemical assay. N-terminal His-tagged hPKM2 was sourced from R&D Systems and its substrates phosphoenolpyruvate (PEP) and ADP from Sigma-Aldrich and 2Bscientific Ltd, respectively. The Kinase-Glo® Plus luminescence assay was from Promega. All other reagents were from Sigma-Aldrich. Test Compounds were prepared as 10 mM DMSO stocks and dilution series prepared in DMSO for direct dilution into Assay Buffer comprising 50 mM imidazole, 50 mM KCl, 7 mM MgCl2, 0.01% Tween20, 0.05% BSA (pH 7.2).
Human PKM2 was diluted into Assay Buffer comprising 50 mM imidazole, 50 mM KCl, 7 mM MgCl2, 0.01% Tween20, 0.05% BSA (pH 7.2) to a final concentration of […]. Enzyme-Assay Buffer mix was dispensed into a 384-well shallow-well white-walled plate (PerkinElmer) and Test Compounds added by acoustic dispense (Echo®, Labcyte Inc.).
After 60 minutes' incubation on an orbital shaker (300 rpm, 26° C.), enzyme activity was quantified by the luminescent detection of generated ATP. Kinase-Glo® Plus reagent was added to each well and the plates incubated for a further 15 minutes on an orbital shaker in the dark (300 rpm, 26° C.) before luminescence measurement on a plate reader (PHERAstar® FSX, BMG Labtech).
Percentage activation was calculated by normalising […] signals to plate LOW (DMSO vehicle) and HIGH (5 μM TEPP-46) controls. EC50 and Emax values were determined from 4-parameter logistic fits of compound concentration-response curves.

The record followed here is patent US20260152487A1 (Sitryx Therapeutics Limited, priority 2021, published 2026).

T1 sequence (P14618 2-531 limits assumed): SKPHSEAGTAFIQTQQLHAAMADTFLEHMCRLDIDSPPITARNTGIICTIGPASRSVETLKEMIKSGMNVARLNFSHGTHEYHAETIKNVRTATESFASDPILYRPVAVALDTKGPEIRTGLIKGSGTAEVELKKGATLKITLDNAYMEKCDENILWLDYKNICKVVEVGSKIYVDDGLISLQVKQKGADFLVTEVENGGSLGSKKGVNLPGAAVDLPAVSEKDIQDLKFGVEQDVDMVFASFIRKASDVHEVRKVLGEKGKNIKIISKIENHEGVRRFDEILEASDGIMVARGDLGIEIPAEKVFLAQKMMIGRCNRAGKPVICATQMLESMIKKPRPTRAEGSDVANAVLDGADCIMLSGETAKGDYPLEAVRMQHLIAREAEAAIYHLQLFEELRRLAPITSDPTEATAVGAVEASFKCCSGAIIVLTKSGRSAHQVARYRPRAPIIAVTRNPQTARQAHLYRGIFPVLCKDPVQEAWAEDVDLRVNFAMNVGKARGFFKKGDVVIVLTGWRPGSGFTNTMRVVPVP

Take “2-(3-aminobenzyl)-6-((2-mathylthiazol-4-yl)sulfonyl)phthalazin-1(2H)-one [Example 151]”: the “hPKM2 Emax” value amounted to 92.52% and the 50% effective concentration (EC50) is 36.5 nM.
For the molecule `COc1ccc(Cn2ncc3cc(S(=N)(=O)c4ccc5c(c4)CCO5)ccc3c2=O)cn1` (racemic) [Example 127, 6-(2,3-dihydrobenzofuran-5-sulfonimidoyl)-2-((6-methoxypyridin-3-yl)methyl)phthalazin-1(2H)-one], the Emax was found to be 68.3% and the concentration for a half-maximal effect (EC50) was 43.3 nM.
For `COc1ccc(Cn2ncc3cc(S(=N)(=O)c4ccccc4)ccc3c2=O)cn1` (racemic) [Example 131, 2-((6-methoxypyridin-3-yl)methyl)-6-(phenylsulfonimidoyl)phthalazin-1(2H)-one], the Emax stood at 99.7% and the EC50 was 300 nM.
With `COc1ccc(Cn2ncc3cc(S(=N)(=O)c4ccc(OC(F)F)cc4)ccc3c2=O)cn1` (racemic) [Example 134, 6-(4-(difluoromethoxy)phenylsulfonimidoyl)-2-((6-methoxypyridin-3-yl)methyl)phthalazin-1(2H)-one], the Emax is 102% and the EC50 came out at 88.1 nM.
On to `COc1ccc(S(=N)(=O)c2ccc3c(=O)n(Cc4ccc(OC)nc4)ncc3c2)cc1` (racemic) [Example 137, 6-(4-methoxyphenylsulfonimidoyl)-2-((6-methoxypyridin-3-yl)methyl)phthalazin-1(2H)-one], for which the Emax turned out to be 81.9% and the EC50 turned out to be 129 nM.
For the molecule `COc1ccc(Cn2ncc3cc([S@](=N)(=O)c4ccccc4)ccc3c2=O)cn1` (single isomer, unassigned) [Example 132], the Emax turned out to be 95.1% and the half-maximal effective concentration (EC50) turned out to be 289 nM.
For `COc1ccc(Cn2ncc3cc([S@@](=N)(=O)c4ccccc4)ccc3c2=O)cn1` (single isomer, unassigned) [Example 133], the maximum response (Emax) was found to be 77.3% and the EC50 is 444 nM.
With `COc1ccc(Cn2ncc3cc([S@](=N)(=O)c4ccc(OC(F)F)cc4)ccc3c2=O)cn1` (single isomer, unassigned) [Example 135], the Emax worked out at 79.9% and the EC50 is 111 nM.
The like results for `COc1ccc(Cn2ncc3cc([S@@](=N)(=O)c4ccc(OC(F)F)cc4)ccc3c2=O)cn1` (single isomer, unassigned) [Example 136] were, in that order, 97.2% and 46.5 nM.
As to `COc1ccc([S@](=N)(=O)c2ccc3c(=O)n(Cc4ccc(OC)nc4)ncc3c2)cc1` (single isomer, unassigned) [Example 139], the “hPKM2 Emax” value was 81.9% and the EC50 was found to be 129 nM.
With `C[C@H](O)c1cccc(Cn2ncc3cc(S(=O)(=O)c4cnn(C)c4)ccc3c2=O)n1` (single isomer, unassigned) [Example 278], the Emax is 78.6% and the concentration for a half-maximal effect (EC50) is 434 nM.
With `C[C@@H](O)c1cccc(Cn2ncc3cc(S(=O)(=O)c4cnn(C)c4)ccc3c2=O)n1` (single isomer, unassigned) [Example 279], the Emax stood at 88.7% and the EC50 turned out to be 277 nM.
Take `Cc1cccc(Cn2ncc3cc(S(=O)(=O)c4csc([C@@H](C)O)n4)ccc3c2=O)n1` (single isomer, unassigned) [Example 296]: the Emax came out at 92.2% and the half-maximal effective concentration (EC50) was 111 nM.
`Cc1cccc(Cn2ncc3cc(S(=O)(=O)c4csc([C@H](C)O)n4)ccc3c2=O)n1` (single isomer, unassigned) [Example 297]: the Emax turned out to be 94.7% and the EC50 worked out at 103 nM.
Turning to `N=[S@](=O)(c1cn[nH]c1)c1ccc2c(=O)n(Cc3ccc4c(n3)CCO4)ncc2c1` (stereo in doubt) [Example 363], the Emax is 105% and the EC50 turned out to be 128 nM.
Turning to `N=[S@@](=O)(c1cn[nH]c1)c1ccc2c(=O)n(Cc3ccc4c(n3)CCO4)ncc2c1` (stereo in doubt) [Example 364], the maximum response (Emax) stood at 114% and the EC50 turned out to be 35 nM.
In the case of `COc1ccc(S(=O)(=O)c2ccc3c(=O)n(Cc4ccnc(O)c4)ncc3c2)cc1` [Example 3, 2-((2-hydroxypyridin-4-yl)methyl)-6-((4-methoxyphenyl)sulfonyl)phthalazin-1(2H)-one], the Emax stood at 92.6% and the EC50 stood at 566 nM.
The like results for `COc1ccc(Cn2ncc3cc(S(=O)(=O)c4ccccc4)ccc3c2=O)c(C(N)=O)n1` [Example 14, 6-methoxy-3-((1-oxo-6-(phenylsulfonyl)phthalazin-2(1H)-yl)methyl)picolinamide] were, in that order, 95.5% and 147 nM.
Consider `Cc1cn(CCO)nc1Cn1ncc2cc(S(=O)(=O)c3ccccc3)ccc2c1=O` [Example 16, 2-((1-(2-hydroxyethyl)-4-methyl-1H-pyrazol-3-yl)methyl)-6-(phenylsulfonyl)phthalazin-1(2H)-one], for which the Emax worked out at 92.6% and the concentration giving a half-maximal response (EC50) came to 154 nM.
For the molecule `N#Cc1c[nH]nc1Cn1ncc2cc(S(=O)(=O)c3ccccc3)ccc2c1=O` [Example 18, 3-((1-oxo-6-(phenylsulfonyl)phthalazin-2(1H)-yl)methyl)-1H-pyrazole-4-carbonitrile], the Emax was 98.5% and the EC50 was 841 nM.
For `O=c1c2ccc(S(=O)(=O)c3ccccc3)cc2cnn1Cc1ccsc1CO` [Example 22, 2-((2-(hydroxymethyl)thiophen-3-yl)methyl)-6-(phenylsulfonyl)phthalazin-1(2H)-one], the Emax turned out to be 86.1% and the EC50 turned out to be 102 nM.
On to `N#Cc1sccc1Cn1ncc2cc(S(=O)(=O)c3ccccc3)ccc2c1=O` [Example 23, 3-((1-oxo-6-(phenylsulfonyl)phthalazin-2(1H)-yl)methyl)thiophene-2-carbonitrile], for which the Emax came to 112% and the 50% effective concentration (EC50) came out at 265 nM.
With `O=c1c2ccc(S(=O)(=O)c3ccccc3)cc2cnn1Cc1cc(C2CC2)[nH]n1` [Example 25, 2-((5-cyclopropyl-1H-pyrazol-3-yl)methyl)-6-(phenylsulfonyl)phthalazin-1(2H)-one], the Emax was 126% and the EC50 was found to be 198 nM.
For `O=c1c2ccc(S(=O)(=O)c3ccccc3)cc2cnn1Cc1n[nH]cc1CO` [Example 26, 2-((4-(hydroxymethyl)-1H-pyrazol-3-yl)methyl)-6-(phenylsulfonyl)phthalazin-1(2H)-one], the Emax came out at 106% and the EC50 is 838 nM.
Consider `O=c1c2ccc(S(=O)(=O)c3ccccc3)cc2cnn1Cc1cc2n(n1)CCO2` [Example 27, 2-((2,3-dihydropyrazolo[5,1-b]oxazol-6-yl)methyl)-6-(phenylsulfonyl)phthalazin-1(2H)-one], for which the Emax stood at 122% and the EC50 amounted to 70 nM.
For the molecule `O=c1c2ccc(S(=O)(=O)c3ccccc3)cc2cnn1Cc1ccn(C(F)F)n1` [Example 28, 2-((1-(difluoromethyl)-1H-pyrazol-3-yl)methyl)-6-(phenylsulfonyl)phthalazin-1(2H)-one], the Emax was found to be 103% and the EC50 worked out at 162 nM.
Turning to `COc1ccc(Cn2ncc3cc(S(=O)(=O)c4ccccc4)ccc3c2=O)cc1` [Example 49, 2-(4-methoxybenzyl)-6-(phenylsulfonyl)phthalazin-1(2H)-one], the Emax worked out at 98.2% and the EC50 turned out to be 122 nM.
As to `CC(c1cccnc1)n1ncc2cc(S(=O)(=O)c3ccccc3)ccc2c1=O` (stereo not drawn) [Example 69, 6-(phenylsulfonyl)-2-(1-(pyridin-3-yl)ethyl)phthalazin-1(2H)-one], the Emax was found to be 75.5% and the EC50 came out at 1170 nM.
In the same order, the values of `Cc1cc(Cn2ncc3cc(S(=O)(=O)c4ccccc4)ccc3c2=O)no1` [Example 80, 2-((5-methylisoxazol-3-yl)methyl)-6-(phenylsulfonyl)phthalazin-1(2H)-one] are 93.2% and 799 nM.
As to `CCn1nccc1Cn1ncc2cc(S(=O)(=O)c3ccccc3)ccc2c1=O` [Example 83, 2-((1-ethyl-1H-pyrazol-5-yl)methyl)-6-(phenylsulfonyl)phthalazin-1(2H)-one], the maximum response (Emax) turned out to be 78.1% and the EC50 was 466 nM.
For the molecule `NC(=O)c1cccc(Cn2ncc3cc(S(=O)(=O)c4ccccc4)ccc3c2=O)c1` [Example 84, 3-((1-oxo-6-(phenylsulfonyl)phthalazin-2(1H)-yl)methyl)benzamide], the Emax is 93.1% and the 50% effective concentration (EC50) came to 115 nM.
For `NC(=O)c1occc1Cn1ncc2cc(S(=O)(=O)c3ccccc3)ccc2c1=O` [Example 85, 3-((1-oxo-6-(phenylsulfonyl)phthalazin-2(1H)-yl)methyl)furan-2-carboxamide], the Emax amounted to 113% and the concentration for a half-maximal effect (EC50) worked out at 71.5 nM.
As to `NC(=O)c1ccc(Cn2ncc3cc(S(=O)(=O)c4ccccc4)ccc3c2=O)o1` [Example 86, 5-((1-oxo-6-(phenylsulfonyl)phthalazin-2(1H)-yl)methyl)furan −2-carboxamide], the Emax turned out to be 92.2% and the EC50 was 765 nM.
